Reference: patent US12012415B2, “Compositions and methods for the diagnosis, treatment and prevention of neoplastic and neurological disorders” (AscentGene, Inc., priority 2018, dated 2024)

Key:
[1] = test system: U251 cells; assay: Cell viability, combination with TMZ in U251 cells; type: cell-based, human
Protocol: (§1) Human glioma cell lines of U251, SF539, SF295 were obtained from NCI/DTP and U87 was obtained from ATCC. U251, SF539, and SF295 cells were grown in RPMI (Gibco) medium; U87 cells were grown in EMEM medium (ATCC), all the cells culture media containing 10% FBS and 100 unit/ml of Penicillin-Streptomycin, and cells were incubated in a 37 °C/5% CO2 humidified hood. One day before chemical compounds treatment, four kinds of cells U251, SF539, SF295, and U87 were seeded in 96-well plates at 10,000 cells/well (100 μl) with triplicate. The culture medium was removed and cells were treated with a series different concentration of AG1601/in correspond fresh media. Following an additional incubation of 48 hours at 37° C./5% CO2, cells proliferation assay was performed with Cell Counting Kit-8 (Dojindo Laboratories, #CK04), added 10 μl of reagent to the cells in each well after replacing with 100 μl of fresh media, mix well, following an additional 2 to 3 hours incubation at 37° C./5% CO2, read wavelengths of OD450 nm in a 96-well plate reader (Victor 2, 1420 Multilabel counter), data analysis were performed with Excel and it is platted as relative mean OD450 nm+/−standard error of the mean.
(§2) Cells were treated with indicated content of AG-1601 for 48 hours, then followed by performance of cell viability assays. […]

[2] = test system: SIRT1 and p-CREB; assay: Western blot of SIRT1, CREB and p-CREB in hippocampus, Aβ1-42 AD rat model; type: in vivo, rats; conditions: vs Aβ1-42 group
Protocol: Aβ1-42 (Sigma-Aldrich, St. Louis, MO, USA;) was dissolved in double-distilled water at the concentration of 5 μg/μl, and incubated at 37° C. for one week before surgery. The rats were randomly divided into four groups as Sham (n=8), Sham+AG-1601 (n=8), Aβ1-42 (n=8) and Aβ1-42+AG-1601 (n=8). The Alzheimer's disease rat models were established by intracerebroventricular (i.c.v.) injection of Aβ1-42 aggregates. The animals were anesthetized with intraperitoneal injection of pentobarbital sodium (50 mg/kg) and placed in a stereotaxic apparatus (Narishige, Japan). The head skin of the rat was opened and two small holes were drilled on both sides of skull following the coordinates: 0.8 mm posterior to bregma, +1.4 mm lateral to sagittal suture, 4.0 mm beneath the surface of brain. Aβ1-42 (2.0 μl per side) was injected bilaterally into the lateral ventricles through micro-syringe. The needle was taken out after 5 minutes of the injection to ensure the aggregates were infused completely. Rats in the Sham group underwent the same operational process, but same volumes of double-distilled water were injected instead of Aβ1-42. After surgery, all rats were injected with penicillin (100,000 U) in the hindquarter muscle to prevent infection. The animals of Sham+AG-1601 and Aβ1-42+AG-1601 groups were intravenous injection with AG-1601 (1 mg/kg), while the same volume vehicle was implemented for the other groups every day for 14 days after one week of the postoperative recovery.
Three rats of each group were randomly selected to be sacrificed and their hippocampal tissues were immediately removed at 0° C. and stored at minus 80° C. For subcellular fractionation, 100- to 200-mg weight rat hippocampal tissue was used. The procedure has been described (Yang et al., 2017). The tissues were homogenized for 30 s in 500 μl TEVP buffer containing 320 mM sucrose and the homogenate was obtained. The homogenate (H) was centrifuged at 900×g for 10 min at 4° C., and the supernatant (S1) was centrifuged for 20 min at 10000×g at 4° C. to obtain the cytosolic/light membrane fraction (S2) and the crude synaptosomal fraction pellet (P2). The pellet was resuspended in TEVP buffer containing 35.6 mM sucrose solution and then centrifuged at 25,000×g for 20 min at 4° C. The supernatant was stored at minus 80° C. and referred as the synaptic vesicular fraction (LS1). The pellet, synaptic plasma membranes (LP1), was resuspended in TEVP buffer containing 1% Triton X-100 and centrifuged at 330,000×g for 30 min at 4° C. The supernatant referred as Triton X-100-soluble fraction (TSF) was stored at minus 80° C. The final pellet, the Triton X-100-insoluble fraction (TIF), was homogenized in TEVP buffer containing 1% SDS.
The total homogenate (H) and synaptosomal fractions were analyzed. Equal amounts of 20 μg from each sample were separated via 10% or 13% SDS-PAGE gels and subsequently transferred onto PVDF membranes (Millipore, USA). […] After washing with TBST buffer, signals were visualized with the HRP substrate (Millipore, USA) and detected with a chemiluminescence kit (Tanon 5500, Tanon Science & Technology, China). The gray-scale value of protein band was quantified by NIH Image J program.

[3] = test system: U87 cells; assay: Cell viability, combination with TMZ in U87 cells; type: cell-based, human
Protocol: as §1, §2

C=CC1=C(C)c2cc3[nH]c(cc4nc(cc5[nH]c(cc1n2)c(C)c5C=C)C(C)=C4CCC(=O)O)c(CCC(=O)NCCCc1ccccc1)c3C [AG-1601, 3-(2,8,13,18-tetramethyl-3-(3-oxo-3-((3-phenylpropyl)amino)propyl)-12,17-divinylporphyrin-7-yl)propanoic acid]
potentiation of the effect of TMZ [1]: potentiates the effect of TMZ | SIRT1 protein level [2]: the decline was prevented | expression of CREB [2]: rescued the reductions | p-CREB level [2]: significantly increased | SIRT1 protein level ([2]; listed as AG-1061): this decline was prevented | p-CREB level ([2]; listed as AG-1061): significantly increased the expression of p-CREB protein | potentiation of the effect of TMZ [3]: potentiates the effect of TMZ
